# Laboratory results from ChEMBL document CHEMBL1150121, “A new cytotoxic calyculinamide derivative, geometricin A, from the Australian sponge Luffariella geometrica” (2002).
# Key:
# Format in all cases: functional
# [Chlorella] fusca = Antialgal activity against Chlorella fusca at 50 ug/disk by agar diffusion test; conditions: Scenedesmus fuscus; read-out: IZ
# HepG2 = experiment: Growth inhibition of human HepG2 cells
# [1] = Growth inhibition of human HM02 cells
# Microbotryum violaceum = experiment: Antifungal activity against Microbotryum violaceum at 50 ug/disk by agar diffusion test; conditions: read-out: IZ
smiles,measurement,setting,value
COC(CC(O)C(C)C(O)C(C)/C=C(C)/C(C)=C/CC/C(C)=C\C(N)=O)[C@H]1O[C@]2(C[C@H](O)[C@H](C)[C@H](C/C=C/c3coc(C)n3)O2)C(C)(C)[C@H]1OP(=O)(O)O (stereo partly specified) [GEOMETRICIN A],zone of inhibition at 50 µg/disc,[Chlorella] fusca,5 mm
same,GI50,HepG2,2.8 µg/mL
same,TGI,HepG2,8.8 µg/mL
same,GI50,[1],1.7 µg/mL
same,TGI,[1],3.2 µg/mL
same,zone of inhibition at 50 µg/disc,Microbotryum violaceum,5 mm
